These are literature values, as cited in patent US20090118293A1 (priority 2004, published 2009).

SMILES strings stand for the structures. Counter-ions that a name gives are not always drawn.

With `NNc1nncc2ccccc12` [hydralazine hydrochloride], the Solubility in water entry is reported as “soluble”. For the same compound, the Solubility in alcohol entry (alcohol) is “slightly soluble”. In addition, for the setting “ether”, the Solubility in ether result is on record as “very slightly soluble”.
`O=[N+]([O-])O[C@H]1CO[C@H]2[C@@H]1OC[C@H]2O[N+](=O)[O-]` [isosorbide dinitrate, 1,4,3,6-dianhydro-D-glucitol-2,5-dinitrate]: the Solubility in water entry was “sparingly soluble”. Moreover, the “Solubility in organic solvents” value (organic solvents such as ethanol, ether and chloroform) is “freely soluble”.
